Source: PubChem BioAssay (NCI)
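Where inhibition never reached the appropriate level, the endpoint shown equals the highest concentration tested. Otherwise, values were interpolated linearly from a five-concentration, 48-hour dose response in 96-well plates. The concentration for 50% growth inhibition is given as GI50. Definition used: TGI = concentration required for complete inhibition of growth.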

Experiments:
Assay in all cases: NCI tumour cell line growth inhibition, 48 h
HCT-116 colon = system: HCT-116 colon
UO-31 renal = system: UO-31 renal
K-562 leukemia = system: K-562 leukemia
HOP-92 NSCLC = system: HOP-92 NSCLC
SF-268 CNS = system: SF-268 CNS
U251 CNS = system: U251 CNS
TK-10 renal = system: TK-10 renal
HOP-62 NSCLC = system: HOP-62 NSCLC
UACC-62 melanoma = system: UACC-62 melanoma
RXF 393 renal = system: RXF 393 renal

Row | SMILES | TGI (HCT-116 colon) [µM] | TGI (UO-31 renal) [µM] | TGI (K-562 leukemia) [µM] | TGI (HOP-92 NSCLC) [µM] | TGI (SF-268 CNS) [µM] | TGI (U251 CNS) [µM] | TGI (TK-10 renal) [µM] | TGI (HOP-62 NSCLC) [µM] | GI50 (UO-31 renal) [µM] | GI50 (HOP-92 NSCLC) [µM] | GI50 (SF-268 CNS) [µM] | GI50 (TK-10 renal) [µM] | GI50 (UACC-62 melanoma) [µM] | TGI (UACC-62 melanoma) [µM] | GI50 (RXF 393 renal) [µM] | TGI (RXF 393 renal) [µM]
1 | CC1CN=C(N(C(=O)Nc2ccc(F)c(Cl)c2)c2ccccc2)S1 (stereo not given) | 67.8 | 98.1 | > 100 | 48.1 | > 100 | 50.5 | 68.4 | 61.6 | – | – | – | – | – | – | – | –
2 | N=C(N)c1ccc(-c2ccc(-c3cccs3)s2)cc1 | – | 2.48 | – | 16 | 4.41 | – | 2.91 | – | 0.978 | 2.71 | 1.87 | 1.4 | 1.68 | 3.18 | 13.9 | 35.5
3 | C[C@]12CC[C@@H]3c4ccc(O)cc4CC[C@H]3[C@@H]1C/C(=C\c1ccncc1)[C@@H]2O | > 100 | 52.9 | – | 32 | 55.5 | 39.6 | > 100 | 44.5 | – | – | – | – | – | 25.6 | – | 7.73
4 | CC(C(=O)N1C(=O)N(C(=O)C(C)C(O)c2ccccc2)C2CCCCC21)C(O)c1ccccc1 (stereo not given) | > 100 | > 100 | – | – | > 100 | > 100 | > 100 | > 100 | – | – | – | – | – | > 100 | – | > 100
5 | CC1=NN(C(=O)CC(=O)Nc2ccccc2F)C(=O)C1N=Nc1ccccc1[N+](=O)[O-] (stereo not given) | > 100 | > 100 | > 100 | – | > 100 | > 100 | > 100 | > 100 | – | – | – | – | – | 69 | – | > 100
6 | CC(=O)c1cccn1/C=C(\OC(=O)OC(C)(C)C)c1ccc[nH]1 | > 100 | > 100 | > 100 | – | > 100 | > 100 | > 100 | > 100 | – | – | – | – | – | > 100 | – | > 100
7 | C=C1c2cc3c(cc2CC12Cc1cc4c(cc1C2=O)CCC4)CCC3 (stereo not given) | > 100 | > 100 | > 100 | > 100 | > 100 | > 100 | > 100 | > 100 | – | – | – | – | – | – | – | > 100
8 | O=C(CN(c1ccccc1)c1ccccc1)N1c2ccccc2C2C=CC=CC21 (stereo not given) | 45.2 | > 49.9 | > 51.5 | – | > 57 | > 56.5 | > 57.2 | 41.5 | – | – | – | – | – | 50.6 | – | > 54.7
9 | C/C1=C\CC[C@@]2(C)O[C@@H]2C[C@@H](C2(C)CO2)CC/C(C)=C/CC1 (stereo not given in full) | 45.5 | 55.9 | > 100 | > 100 | 33.9 | 29.6 | 32.5 | 97.3 | – | – | – | – | – | 40.4 | – | –
10 | COC(=O)c1c2c(cc3c1CCC3)CCC2 | > 100 | > 100 | > 100 | – | > 100 | > 100 | > 100 | > 100 | – | – | – | – | – | > 100 | – | –
11 | CCC1=CC2CN3Cn4c(c(COCc5c6n(c7ccccc57)CN5CC7C=C(CC)C5C6(C(=O)OC)C7)c5ccccc54)C(C(=O)OC)(C2)C13 | > 100 | > 100 | > 100 | – | > 100 | > 100 | > 100 | > 100 | – | – | – | – | – | > 100 | – | > 100
12 | O=C(CNc1c(Cl)cccc1Cl)NC1C=Cc2ccc(S(=O)(=O)Nc3c(Cl)cccc3Cl)cc2C1=O (stereo not given) | > 100 | > 100 | > 100 | > 100 | > 100 | > 100 | > 100 | > 100 | – | – | – | – | – | > 100 | – | –
13 | CN(Cc1ccccc1)c1cc(=O)n(C)c(=O)[nH]1 | > 100 | > 100 | > 100 | > 100 | > 100 | > 100 | > 100 | – | – | – | – | – | – | > 100 | – | –
14 | CC(C)=CCC/C(C)=C/COC(C)(C)C1=CCC(C)CC1 (stereo not given) (tested in a mixture with another compound) | > 100 | > 100 | – | > 100 | > 100 | > 100 | > 100 | > 100 | – | – | – | – | – | > 100 | – | > 100
15 | CSc1c(C#N)c(N)n(-c2ccc(C)cc2)c(=O)c1C#N | > 100 | > 100 | > 100 | – | > 100 | > 100 | > 100 | – | – | – | – | – | – | > 100 | – | > 100
16 | O=[N+]([O-])c1ccc(/C=C/c2cc(-c3ccccc3)nc3ccc4ccccc4c23)cc1 | > 100 | > 100 | > 100 | – | > 100 | > 100 | > 100 | > 100 | – | – | – | – | – | > 100 | – | > 100
17 | S=C(/N=c1\sc(Nc2ccc(Cl)cc2)nc2sc3c(c12)CCN(N1CCc2c(sc4nc(Nc5ccc(Cl)cc5)s/c(=N\C(=S)Nc5ccc(Cl)cc5)c24)C1)C3)Nc1ccc(Cl)cc1 | 31.7 | > 100 | – | – | > 100 | 61.9 | > 100 | > 100 | – | – | – | – | – | 48 | – | 36.7
